Measurements taken from patent US20230320995A1, “IONIZABLE CATIONIC LIPIDS AND LIPID NANOPARTICLES” (CAPSTAN THERAPEUTICS, INC., priority 2022, published 2023).
Like-named read-outs stand apart in the source and are kept apart here.

How the values were obtained:
[1] = apparent pKa of ionizable lipid in lipid nanoparticle, TNS assay; assay type: physicochemical; conditions: for ΔpKa: difference of calculated and measured pKa; for pKa: TNS assay
Method: c Log D and c-pKa were calculated as noted above. The measured pKa of a lipid was determined as formulated in a lipid nanoparticle using the TNS assay as described in the following Example.
The apparent pKa of ionizable lipid in the lipid nanoparticle was determined using 6-(p-toluidino)-2-naphthalenesulfonic acid sodium salt (TNS salt, Toronto Research Chemicals, Toronto, ON, Canada). Lipid nanoparticles were diluted in 1×Dulbecco's PBS to a concentration of 1 mM total lipids. TNS salt was prepared as a 1 mg/mL stock solution in DMSO and then further diluted using distilled water to a working solution of 60 μg/mL ([…]). Diluted lipid nanoparticle samples were further diluted to 90 μM total lipids in 165 μL of buffered solution containing 10 mM HEPES, 10 mM MES, 10 mM ammonium acetate, 130 mM NaCl, and final TNS concentration of 1.33 μg/mL (4 μM) with the pH ranging from 3.5 to 12.2. Following pipette mixing and incubation at room temperature in the dark for 15 min, fluorescence intensity was measured at room temperature in a BioTek Synergy H1 plate reader using excitation and emission wavelengths of 321 and 445 nm, respectively. The fluorescence signal was blank subtracted and plotted as a function of the pH, then analyzed using a nonlinear (Boltzmann) regression analysis with the apparent pKa determined as the pH giving rise to half maximal fluorescence intensity as calculated by the Henderson-Hasselbalch equation.

[2] = ex vivo stability in mouse plasma; assay type: in vitro ADME; conditions: CD-1 mouse plasma, 37° C., 1 μM lipid
Method: To determine the stability of the disclosed lipids in mouse plasma lipid stock solution was prepared by dissolution of the lipid in isopropanol at the concentration of 5 mg/mL. A requisite volume of the lipid-isopropanol solution was then diluted to 100 μM concentration at a total volume of 10.0 mL with 50:50 (v/v) ethanol/water. Ten microliters of this 100 μM solution was spiked into 10.0 mL of mouse plasma (BioIVT, Lot MSE394920, CD-1 mouse, anticoagulant: sodium heparin, not filtered) that was prewarmed to 37° C. and stirred at 50 rpm with a magnetic stir bar. The starting concentration of lipids in plasma was thus 1 μM. Aliquots (50 μL) were taken after 0, 15, 30, 45, 60, and 120 minutes, transferred to microcentrifuge tubes and quenched with three volumes (150 μL) of ice cold acetonitrile/methanol (4:1). Positive control incubations utilized the same plasma, with Benfluorex (1 μM) as the substrate with Labetalol (1.0 μgl) as the in situ disappearance. The quenched solutions were vortexed, centrifuged for 5 minutes at 13,000 rpm, and supernatant (100 μL) transferred to a 96-well plate and diluted with water (200 μL, 0.1% FA). After filtration through a 0.45 μm 96-well filtering plate, the filtrates were analyzed by LC-MS (Waters AQUITY I-class UPLC system, ThermoScientific Vanquish UPLC system consisting of a binary pump, autosampler, and column compartment, Waters Xevo G2-XS QT of mass spectrometer; Phenomenex F5, 1.7 μm, 2.1×50 mm column). Mobile phase A was 0.1% formic acid in water, and mobile phase B was 0.1% formic acid in acetonitrile. The flow rate was 0.6 mL/min. Elution gradient was as follows: time, 0.5 min: 20% B; 0.5-2 min: 20-100% B; 2-4.8 min: 100% B; 4.8-5.45 min: 100-20% B. Mass spectrometry was in positive scanning mode from 600-1100 m/z. The peak of the molecular ion of the lipids was integrated in extracted ion chromatography (XIC) using Xcalibur software (Thermo Fisher). The relative peak area compared to T=0, after normalization by the peak area of the internal standard, was used as the percentage of the lipid remaining at each time point. T1/2 values were calculated using the first-order decay model.

[3] = physical-chemical properties of LNP encapsulating mCherry mRNA; assay type: physicochemical; conditions: for Encapapsulation Efficiency / PDI (polydispersity index): LNP 50:10:38.5:1.5, mCherry mRNA; for Encapapsulation Efficiency / Hydrodynamic diameter: N/P 6; for PDI (polydispersity index) / Hydrodynamic diameter: DLS; for Hydrodynamic diameter: LNP: ionizable lipid/DSPC/cholesterol/DMG-PEG2000 50:10:38.5:1.5, mCherry mRNA, pH 7.4 Tris, 25° C.
Description: The mRNA was encapsulated in LNP using a self-assembly process in which an aqueous solution of mRNA at pH=3.5 is rapidly mixed with a solution of lipids dissolved in ethanol, then followed by stepwise phosphate and Tris buffer dilution and tangential flow filtration (TFF) purification. LNP composition in this study was: ionizable cationic lipid/distearoylphosphatidylcholine/cholesterol/DMG-PEG2000 (50:10:38.5:1.5 mol/mol) and were encapsulated at an N/P ratio (the ratio of positively-chargeable lipid amine (N=nitrogen) groups to negatively-charged nucleic acid phosphate (P) groups) at 6. LNPs were frozen at −80° C. […] The diameter of the nanoparticles was measured by dynamic light scattering using a Zetasizer Nano ZS (Malvern Instruments Ltd., Malvern, UK) instrument. Size measurement was carried out in pH 7.4 Tris buffer at 25° C. in relevant disposable capillary cells. A non-invasive back scatter system (NIBS) with a scattering angle of 173° was used for size measurements.

[4] = physical-chemical properties of CD5-targeted tLNP encapsulating mCherry mRNA; assay type: physicochemical; conditions: for Hydrodynamic diameter: anti-CD5 tLNP: ionizable lipid/DSPC/cholesterol/DMG-PEG 2000/DSPE-PEG2000-Maleimide 50:10:38.5:1.4:0.1; for Hydrodynamic diameter / PDI (polydispersity index): DLS; for PDI (polydispersity index) / Encapsulation Efficiency: anti-CD5 tLNP; for Encapsulation Efficiency: RiboGreen assay
Description: CleanCap® mCherry 5-methoxyuridine (5moU) mRNA (L-7203) was purchased from TriLink. mRNA was encapsulated in LNP using a self-assembly process in which an aqueous solution of mRNA at pH=3.5 is rapidly mixed with a solution of lipids dissolved in ethanol, then followed by stepwise phosphate and Tris buffer dilution and TFF purification. LNP composition in this study was: ionizable cationic lipid/distearoylphosphatidylcholine/cholesterol/DMG-PEG 2000/distearoylphosphatidyl ethanolamine(DSPE)-PEG2000-Maleimide (50:10:38.5:1.4:0.1 mol/mol) and were encapsulated at an N/P ratio (the ratio of positively-chargeable […] amine (N=nitrogen) groups to negatively-charged nucleic acid phosphate (P) groups) at 6. The hydrodynamic diameter of the nanoparticles was measured by dynamic light scattering using a Zetasizer Nano ZS (Malvern Instruments Ltd., Malvern, UK) instrument.
Next, an anti-CD5 mAb was conjugated to the above LNP to generate tLNP. Purified rat anti-mouse CD5 antibody, clone 53-7.3 (BioLegend), was coupled to LNP via N-succinimidyl S-acetylthioacetate (SATA)-maleimide conjugation chemistry. Briefly, LNPs with DSPE-PEG(2000)-maleimide incorporated were formulated and stored at 4° C. on the day of conjugation. The antibody was modified with SATA (Sigma-Aldrich) to introduce sulfhydryl groups at accessible lysine residues allowing conjugation to maleimide. SATA was deprotected using 0.5 M hydroxylamine followed by removal of the unreacted components by G-25 Sephadex Quick Spin Protein columns (Roche Applied Science, Indianapolis, IN). The reactive sulfhydryl group on the antibody was then conjugated to maleimide moieties on the LNPs using thioether conjugation chemistry. Purification was performed using Sepharose CL-4B gel filtration columns (Sigma-Aldrich). tLNPs (LNPs conjugated with a targeting antibody) were frozen at −80° C. Others have conjugated antibody to free functionalized PEG-lipid and then incorporated the conjugated lipid into pre-formed LNP.
mRNA content was determined using a Quant-iT™ RiboGreen RNA assay kit (Invitrogen™). Encapsulation efficiency was calculated by determining the unencapsulated mRNA content by measuring the fluorescence intensity (Fi) upon the addition of RiboGreen reagent to the LNP and comparing this value to the total fluorescence intensity (Ft) of the RNA content that is obtained upon lysis of the LNPs by 1% Triton X-100, where % encapsulation=(Ft−Fi)/Ft x 100).
The particle size (hydrodynamic diameter) and polydispersity index of the targeted lipid nanoparticles were determined using dynamic light scattering (DLS) on a Malvern Zetasizer Nano ZS (Malvern Instruments, Worcestershire, UK). Size measurement was carried out in pH 7.4 Tris buffer at 25° C. in relevant disposable capillary cells. A non-invasive back scatter system (NIBS) with a scattering angle of 173° was used for size measurements.

[5] = ionizable lipid in tLNP, read-out: Measured pKa
[6] = measured, lipid formulated in a lipid nanoparticle, read-out: pKa

Row | ΔpKa [1] | pKa [1, 5] | pKa [1, 6] | ex vivo Mouse Plasm Stability % Remaining at 2 Hours [2] | Encapapsulation Efficiency [3] | PDI (polydispersity index) [3] | Hydrodynamic diameter [3] | Hydrodynamic diameter [4] | PDI (polydispersity index) [4] | Encapsulation Efficiency [4] | SMILES
1 | 0.80 | 7.51 | 7.51 | 64% | 99% |  | 101 nm | 100 nm | 0.10 | 99% | CCCCCCCCC(=O)OCC(COC(=O)CCCCCCCC)CC(=O)OCCN(CCOC(=O)CC(COC(=O)CCCCCCCC)COC(=O)CCCCCCCC)C(=O)NCCN(C)C [Compound A-13]
2 | 0.91 | 7.46 | 7.46 | 61% | 91% | 0.03 | 127 nm | 100 nm | 0.05 | 95% | CCCCCCCCC(=O)OCC(COC(=O)CCCCCCCC)CC(=O)OCCN(CCOC(=O)CC(COC(=O)CCCCCCCC)COC(=O)CCCCCCCC)C(=O)N(C)CCN(C)C [Compound A-14]
3 | 1.18 | 8.37 | 8.37 | 69% | 99% | 0.07 | 97 nm | 136 nm | 0.15 | 98% | CCCCCCCCC(=O)OCC(COC(=O)CCCCCCCC)CC(=O)OCCN(CCOC(=O)CC(COC(=O)CCCCCCCC)COC(=O)CCCCCCCC)C(=O)N(C)CCCN(C)C [Compound A-15]

Row | SMILES | ΔpKa [1] | pKa [1, 5] | pKa [1, 6] | ex vivo Mouse Plasm Stability % Remaining at 2 Hours [2] | Encapapsulation Efficiency [3] | PDI (polydispersity index) [3] | Hydrodynamic diameter [3] | Hydrodynamic diameter [4] | PDI (polydispersity index) [4] | Encapsulation Efficiency [4]
4 | CCCCCCCCC(=O)OCC(COC(=O)CCCCCCCC)CC(=O)OCCN(CCOC(=O)CC(COC(=O)CCCCCCCC)COC(=O)CCCCCCCC)C(=O)OCCCN(C)C [Compound A-12] | 1.91 | 7.35 | 7.35 | 85% | 91% | 0.04 | 104 nm | 98 nm | 0.07 | 92%
